{
  "source": "patent US9987294B2",
  "about": "“Mitochondria-targeted anti-tumor agents” (University of Massachusetts, priority 2007, dated 2018)",
  "key": {"[1]": {"system": "normal human fibroblast cell types (WS-1, HGF, HFF)", "experiment": "Cell viability by MTT, normal human fibroblast cell types", "settings": "concentrations comparable to those killing tumor cells", "description": "Changes in protein expression in the various experiments of siRNA targeting were assessed by Western blotting. For analysis of TRAP-1-directed cytoprotection, primary nontransformed human fibroblasts HFF and WS-1 were transfected with control pcDNA3 or TRAP-1 cDNA by lipofectamine for 24 hours, exposed to increasing concentrations (0-1 μM) of the cell death stimulus staurosporine (STS), and analyzed for cell viability after additional 24 hours incubation by MTT. For analysis of apoptosis, p53+/+ or p53−/−HCT116 cells were treated with control or ANT-GA (100 μM), and analyzed for DEVDase activity (CaspaTag) and propidium iodide staining by simultaneous multiparametric flow cytometry, as described (Dohi et al., J. Clin. Invest. 114(8):1117-27, (2004); Plescia et al., Cancer Cell, 7:457-468, (2005))."}, "tumor mitochondria": {"system": "tumor mitochondria", "experiment": "Cytochrome c release from drug-treated isolated tumor mitochondria", "format": "biochemical", "settings": "3 hours (FIG. 16D)", "description": "Tumor cell types were treated with controls or the various Hsp90 antagonists, and cytosolic extracts were harvested at increasing time intervals between 5-30 minutes and analyzed by Western blotting. For experiments in a cell-free system, purified mitochondria (20 μg) were suspended in 500 μl of SB buffer (0.2 M sucrose, 10 mM Tris-MOPS, pH 7.4, 5 mM succinate, 1 mM sodium phosphate, 10 μM EGTA-Tris, and 2 μM rotenone). […] At the end of each incubation reaction, mitochondria and supernatants were separated by centrifugation at 6,000×g for 10 minutes, and analyzed by Western blotting.\n(§1) The fluorescence intensity after treatment with 2 mM CaCl2 corresponded to a fully depolarized state. Alternatively, H460 cells were labeled with the fluorescent dye JC-1 (Molecular Probes), and analyzed for changes in red/green (F1-2/F1-1) fluorescence ratio after treatment with the various agents, by multiparametric flow cytometry. Cytochrome c content in pellets or supernatants of drug-treated isolated mitochondria was determined by Western blotting."}, "[2]": {"system": "isolated tumor mitochondria", "experiment": "Inner membrane potential of TMRM-loaded tumor mitochondria", "format": "biochemical", "description": "as §1"}, "[3]": {"system": "lung adenocarcinoma H460 cells", "experiment": "Cell viability by MTT, H460", "format": "cell-based, human", "settings": "3 hour exposure", "description": "(§2) Modulation of cell viability was determined by MTT (Kang et al., “Regulation of tumor cell mitochondrial homeostasis by an organelle-specific Hsp90 chaperone network,” Cell, 131:257-270 (2007)). For determination of apoptosis, cells were analyzed for caspase activity (DEVDase activity) and plasma membrane integrity (propidium iodide) using CaspaTag (Intergen, Burlington, Mass.), by multiparametric flow cytometry (Kang et al., “Regulation of tumor cell mitochondrial homeostasis by an organelle-specific Hsp90 chaperone network,” Cell, 131:257-270 (2007))."}, "[4]": {"system": "H460 lung adenocarcinoma xenograft tumors", "experiment": "Xenograft tumor growth, H460", "format": "in vivo, mice", "settings": "i.p.; G4 and 17-AAG 2-3 mg/kg twice daily, G1 30-50 mg/Kg daily, TPP 10 mg/Kg daily", "description": "To create the models used in this example, HL60 (10×10^6) or H460 (4×10^6) cells suspended in sterile PBS (200 μl) were injected subcutaneously into both flanks of 10 week-old CB17 SCID/beige (Taconic Farms) immunocompromised female mice. Alternatively, MDA-MB-231 cells (5×10^6) suspended in 200 μl of 50% Matrigel (BD Biosciences) were used for subcutaneous injection in CB17 SCID/beige mice. When superficial tumors reached volumes of 100-150 mm^3, animals were randomized in two groups (2 tumors/mouse, 3 animals/group), and treated with vehicle (DMSO) or Gamitrinib dissolved in 20% Cremophor EL (Sigma) in PBS by intraperitoneal (i.p.) injection. Gamitrinib-G4 was used as sterile i.p. injections with the following schedules: HL60 xenografts, 2 mg/Kg twice daily; H460 xenografts, 2 mg/kg twice daily for d 0, 2.5 mg/kg twice daily for d 1, 3.0 mg/kg twice daily for the duration of treatment; MDA-MB-231 xenografts, 2 mg/Kg twice daily for d 0-2, 2.5 mg/Kg twice daily for d 3-5, and 3 mg/Kg twice daily throughout the rest of the treatment. 17-AAG was dissolved in 20% Cremophor EL and used as systemic i.p. injections with the same dose-escalating regimen as Gamitrinib-G4 in H460 xenograft studies. Gamitrinib-G1 was used with following schedules: 30 mg/Kg daily (d 0-2), and 50 mg/Kg daily for the rest of treatment. Gamitrinib-TPP was used as i.p. injections at 10 mg/Kg daily throughout the duration of the experiment. Tumor measurements were taken daily with a caliper, and tumor volume was calculated with the formula ([length in millimeters]×[width in millimeters]^2)/2. Mice in the various treatment groups were weighed at the beginning and at the end of each experiment."}, "[5]": {"system": "breast adenocarcinoma SKBr3 cells", "experiment": "Metabolic activity by MTT, SKBr3", "format": "cell-based", "settings": "10 μM; by 48 hours and throughout a 96-hours interval", "description": "as §2"}, "TRAP-1 and Hsp90": {"system": "TRAP-1 and Hsp90", "experiment": "Fractionation of Raji mitochondrial extracts over Shepherdin-Sepharose or scrambled peptidomimetic-Sepharose", "format": "binding, human", "settings": "coupled to Sepharose beads, Western blotting"}, "[6]": {"system": "Ras-transformed NIH3T3 mitochondria", "experiment": "Mitochondrial membrane potential of TMRM-loaded isolated mitochondria", "format": "biochemical", "description": "Raji cells were treated with Shepherdin or control scrambled peptidomimetic (100 μM) or 17-AAG (5 μM), loaded with the mitochondrial membrane potential-sensitive fluorescent dye JC-1, and analyzed for changes in green/red fluorescence ratio by flow cytometry. For experiments in a cell-free system, purified mitochondria isolated from primary normal cells, various tumor cells types, or normal mouse organs were suspended in SB buffer. […] For these experiments, TMRM-loaded mitochondria in SB buffer were allowed to reach stable fluorescence, which was set as fully polarized state (maximum membrane potential). The fluorescence intensity after treatment with 2 mM CaCl2 was set as minimum membrane potential (fully depolarized state). Changes in fluorescence intensity after each treatment were plotted as a ratio between maximum and minimum membrane potential."}},
  "note": "Entries after “also recorded” stand apart in the source; their conditions may differ. Where a name gives a salt, the structure may show the parent alone. Where no end group is shown, it is not given here. [ ]: non-standard residue; d: D form.",
  "data": [
    {"compound": "CC[C@H](C)[C@H](NC(=O)[C@H](CCCCN)NC(=O)[C@@H](NC(=O)[C@H](CCC(N)=O)NC(=O)[C@@H](N)CCCNC(=N)N)[C@@H](C)CC)C(=O)N[C@@H](Cc1c[nH]c2ccccc12)C(=O)N[C@@H](Cc1ccccc1)C(=O)N[C@@H](CCC(N)=O)C(=O)N[C@@H](CC(N)=O)C(=O)N[C@@H](CCCNC(=N)N)C(=O)N[C@@H](CCCNC(=N)N)C(=O)N[C@@H](CCSC)C(=O)N[C@@H](CCCCN)C(=O)N[C@@H](Cc1c[nH]c2ccccc12)C(=O)N[C@@H](CCCCN)C(=O)N[C@@H](CCCCN)C(=O)N[C@@H](CSC1CC(=O)N(CCCC(=O)NCCCNC2=C3C[C@@H](C)C[C@H](OC)[C@H](O)[C@@H](C)/C=C(\\C)[C@H](OC(N)=O)[C@@H](OC)/C=C\\C=C(/C)C(=O)NC(=CC2=O)C3=O)C1=O)C(N)=O", "note": "(some centres unmarked) [ANT-GA]", "values": [
      {"measurement": "viability of normal human fibroblast cell types", "setting": "[1]", "value": "none of the compounds affected the viability of various normal human fibroblast cell types"}
    ]},
    {"compound": "COc1c(C)cnc(Cn2cnc3c(Cl)nc(N)nc32)c1C", "note": "[BIIB021]", "values": [
      {"measurement": "cytochrome c release from mitochondria", "setting": "tumor mitochondria", "value": "had no effect on cytochrome c release"}
    ]},
    {"compound": "CO[C@H]1/C=C\\C=C(/C)C(=O)NC2=CC(=O)C(NCCN(C)C)=C(C[C@@H](C)C[C@H](OC)[C@H](O)[C@@H](C)/C=C(\\C)[C@@H]1OC(N)=O)C2=O", "note": "[DMAG, 17-(dimethylaminoethylamino)-17-demethoxygeldanamycin]", "values": [
      {"measurement": "mitochondrial inner membrane potential", "setting": "[2]", "value": "did not affect mitochondrial membrane potential"}
    ]},
    {"compound": "COC1=C2C[C@@H](C)C[C@H](OC)[C@H](O)[C@@H](C)/C=C(\\C)[C@H](OC(N)=O)[C@@H](OC)/C=C\\C=C(/C)C(=O)NC(=CC1=O)C2=O", "note": "[GA, geldanamycin]", "values": [
      {"measurement": "viability of normal human fibroblast cell types", "setting": "[1]", "value": "none of the compounds affected the viability of various normal human fibroblast cell types"}
    ]},
    {"compound": "CO[C@H]1/C=C\\C=C(/C)C(=O)NC2=CC(=O)C(NCCCNC(=O)CCCN3C(=O)CC(SC[C@H]4CCN5CC[C@H](CO[Si](c6ccccc6)(c6ccccc6)C(C)(C)C)N=C5N4)C3=O)=C(C[C@@H](C)C[C@H](OC)[C@H](O)[C@@H](C)/C=C(\\C)[C@@H]1OC(N)=O)C2=O", "note": "(stereo partly drawn) [Gamitrinib-G1, (4E,6Z,8S,9S,10E,12S,13R,14S,16R)-19-(3-(4-(3-(((2R,8R)-8-((tert-butyldiphenylsilyloxy)methyl)-2,3,4,6,7,8-hexahydro-1H-pyrimido[1,2-a]pyrimidin-2-yl)methylthio)-2,5-dioxopyrrolidin-1-yl)butanamido)propylamino)-13-hydroxy-8,14-dimethoxy-4,10,12,16-tetramethyl-3,20,22-trioxo-2-azabicyclo[16.3.1]docosa-1(21),4,6,10,18-pentaen-9-yl carbamate, hexafluorophosphate salt]", "values": [
      {"measurement": "cell viability", "setting": "[3]", "value": "had no effect"},
      {"measurement": "tumor growth", "setting": "[4]", "value": "also inhibited lung cancer growth in vivo"}
    ]},
    {"compound": "CO[C@H]1/C=C\\C=C(/C)C(=O)NC2=CC(=O)C(NCCCNC(=O)CCCN3C(=O)CC(SC[C@H]4CCN5CC[C@H](CSC[C@H]6CCN7CC[C@H](CO[Si](c8ccccc8)(c8ccccc8)C(C)(C)C)N=C7N6)N=C5N4)C3=O)=C(C[C@@H](C)C[C@H](OC)[C@H](O)[C@@H](C)/C=C(\\C)[C@@H]1OC(N)=O)C2=O", "note": "(some centres unmarked) [Gamitrinib-G2]", "values": [
      {"measurement": "cell viability", "setting": "[3]", "value": "had intermediate activity"}
    ]},
    {"compound": "CO[C@H]1/C=C\\C=C(/C)C(=O)NC2=CC(=O)C(NCCCNC(=O)CCCN3C(=O)CC(SC[C@H]4CCN5CC[C@H](CSC[C@H]6CCN7CC[C@H](CSC[C@H]8CCN9CC[C@H](CO[Si](c%10ccccc%10)(c%10ccccc%10)C(C)(C)C)N=C9N8)N=C7N6)N=C5N4)C3=O)=C(C[C@@H](C)C[C@H](OC)[C@H](O)[C@@H](C)/C=C(\\C)[C@@H]1OC(N)=O)C2=O.F[P-](F)(F)(F)(F)F.F[P-](F)(F)(F)(F)F.F[P-](F)(F)(F)(F)F", "note": "(some centres unmarked) [Gamitrinib-G3]", "values": [
      {"measurement": "cell viability", "setting": "[3]", "value": "complete loss of cell viability"},
      {"measurement": "IC50", "setting": "[3]; read-out: IC50, loss of cell viability", "value": "~500", "unit": "nM"}
    ]},
    {"compound": "CO[C@H]1/C=C\\C=C(/C)C(=O)NC2=CC(=O)C(NCCCCCC[P+](c3ccccc3)(c3ccccc3)c3ccccc3)=C(C[C@@H](C)C[C@H](OC)[C@H](O)[C@@H](C)/C=C(\\C)[C@@H]1OC(N)=O)C2=O", "note": "[Gamitrinib-TPP, (4E,6Z,8S,9S,10E,12S,13R,14S,16R)-19-(6-(triphenylphosphonio)hexylamino)-13-hydroxy-8,14-dimethoxy-4,10,12,16-tetramethyl-3,20,22-trioxo-2-azabicyclo[16.3.1]docosa-1(21),4,6,10,18-pentaen-9-yl carbamate hexafluorophosphate]", "values": [
      {"measurement": "mitochondrial inner membrane potential", "setting": "[2]", "value": "promptly depolarized tumor mitochondria"},
      {"measurement": "cell viability", "setting": "[3]", "value": "had intermediate activity"},
      {"measurement": "metabolic activity", "setting": "[5]", "value": "comparably reduced metabolic activity"},
      {"measurement": "tumor growth", "setting": "[4]", "value": "also inhibited lung cancer growth in vivo"}
    ]},
    {"compound": "C=CCNc1c(O)cc2c(O)c1C[C@@H](C)C[C@H](OC)[C@H](O)[C@@H](C)/C=C(\\C)[C@H](OC(N)=O)[C@@H](OC)/C=C\\C=C(/C)C(=O)N2", "note": "[IPI-504]", "values": [
      {"measurement": "cytochrome c release from mitochondria", "setting": "tumor mitochondria", "value": "had no effect on cytochrome c release"}
    ]},
    {"compound": "CCNC(=O)c1noc(-c2cc(C(C)C)c(O)cc2O)c1-c1ccc(CN2CCOCC2)cc1", "note": "[NVP-AUY922]", "values": [
      {"measurement": "cytochrome c release from mitochondria", "setting": "tumor mitochondria", "value": "had no effect on cytochrome c release"}
    ]},
    {"compound": "Sheph: Shepherdin lacking the Antennapedia cell-penetrating sequence ([dL][dF][dA][dC]G[dS][dS][dH][dK])", "values": [
      {"measurement": "association of Hsp90 and TRAP-1 with immobilized peptidomimetic", "setting": "TRAP-1 and Hsp90", "value": "specific elution of both TRAP-1 and Hsp90; also recorded: Hsp90 and TRAP-1 are bound by Shepherdin-Sepharose"},
      {"measurement": "membrane potential of mitochondria", "setting": "[6]", "value": "induces loss of mitochondrial membrane potential in transformed cells"}
    ]}
  ]
}
